Experimental data from US20190160064A1, “METHODS FOR TREATING SKELETAL MUSCLE CACHEXIA ARISING FROM BURN INJURY BY ADMINISTERING PDE4B-SELECTIVE INHIBITORS” (University of Cincinnati, priority 2017, published 2019).

Key:
[1] = system: EDL muscle of burned WT rats; assay: Pre-treatment of WT rats before burn injury, EDL muscle protein breakdown (Example 6); type: in vivo, rat; settings: adult WT rats pre-treated daily for 7 days before 30% TBSA burn, 24 h after burn, vs. saline control WT rats
Method: Adult WT rats are pre-treated with either PDE4B-selective inhibitor (4-{[2-(5-Chloro-2-thienyl)-5-ethyl-6-methyl-4-pyrimidinyl]amino}phenyl)acetic acid (test group) or saline (control group). Rats are treated daily for 7 days prior to burn exposure. On day 8, rats are anaesthetized, shaved, and subjected to a third-degree burn on the back, affecting 30% of total body surface area (TBSA). Both test WT rats and control WT rats are then resuscitated. All rats are provided with rat chow equivalent to ˜10% of their body weight.
After 24 h, all rats are re-anesthetized and the gastrocnemius muscles are dissected and rapidly frozen in liquid nitrogen. To assess protein breakdown rates, the dissected extensor digitorum longus (EDL) muscles are tied by the tendons at resting length to stainless steel supports and preincubated in a shaking water bath for 30 min at 37° C. in individually stoppered 25 ml flasks containing oxygenated (95% 02-5% CO2) Krebs-Henseleit bicarbonate buffer (pH 7.4) with 10 mM glucose. Muscles are then transferred to fresh buffer containing 0.5 mM cycloheximide for 2 h incubation. The total (tyrosine) and myofibrillar (1-methyl-histidine, 1-Me-His) protein breakdown rates are determined by measuring the net production of tyrosine and 1-Me-His during 2 h incubation.

[2] = system: EDL muscle of burn-PDE4B KO rats; assay: EDL muscle protein breakdown during 2 h in vitro incubation with EPAC/PKA inhibitors; type: cell-based, rat; settings: EDL muscle of burn-PDE4B KO rats obtained 24 h after burn, 2 h in vitro incubation with inhibitor
Method: After 24 h, rats were re-anesthetized with pentobarbital (50 mg/kg), and the gastrocnemius muscles were dissected and rapidly frozen in liquid nitrogen. To assess protein breakdown rates, the dissected extensor digitorum longus (EDL) muscles were tied by the tendons at resting length to stainless steel supports and preincubated in a shaking water bath for 30 min at 37° C. in individually stoppered 25 ml flasks containing 3 ml oxygenated (95% 02-5% CO2) Krebs-Henseleit bicarbonate buffer (pH 7.4) with 10 mM glucose. Muscles were then transferred to fresh buffer containing 0.5 mM cycloheximide for 2 h incubation. The total (tyrosine) and myofibrillar (1-methyl-histidine, 1-Me-His) protein breakdown rates were determined by measuring the net production of tyrosine and 1-Me-His during 2 h incubation, according to previously published HPLC procedures (Balasubramaniam, A., et al., Torbafylline (HWA 448) inhibits skeletal muscle proteolysis in burned rats, J. Burn Care & Res. 30: S151 (2009)). The protein breakdown studies with PDE4B KO-rats were repeated with eight each of sham and burn rats to corroborate our initial findings. Additional in vivo experiments were performed to obtain tissues for biochemical studies and to study the effects of inhibitors of PKA (H89) and EPAC (ESI-09) on EDL protein breakdown in PDE4B KO-rats.
To elucidate the factor(s) imparting resistance to burn-induced skeletal muscle proteolysis in PDE4B-KO rats, EDL muscles of burn-PDE4B KO rats were incubated in the presence of inhibitors for cAMP downstream elements, PKA (H89) and EPAC (ESI-09).

[3] = system: burn-induced skeletal muscle proteolysis; settings: rat, burn injury; cited from earlier work
mouse myotubes, C2C12 = settings: C2C12 myotubes treated with TNFα+IFNγ; cited from earlier work
PDE4D in lung tissue = settings: murine model of asthma; cited from earlier work

CCc1c(C)nc(-c2ccc(Cl)s2)nc1Nc1ccc(CC(=O)O)cc1 [Compound 33, (4-{[2-(5-Chloro-2-thienyl)-5-ethyl-6-methyl-4-pyrimidinyl]amino}phenyl) acetic acid]
1-Me-His release from the EDL muscle (myofibrillar protein breakdown) [1]: significantly decreases
Tyr release from the EDL muscle (total protein breakdown) [1]: significantly decreases

O=S(=O)(NCCNC/C=C/c1ccc(Br)cc1)c1cccc2cnccc12 [Compound H89]
burn-induced EDL muscle myofibrillar protein breakdown (1-Me-His) [2]: did not exhibit any effect
burn-induced EDL muscle total protein breakdown (Tyr) [2]: did not exhibit any effect

CC(C)(C)c1cc(C(=O)/C(C#N)=N/Nc2cccc(Cl)c2)no1 [ESI-09]
burn-induced EDL muscle myofibrillar protein breakdown (1-Me-His) [2]: to the same extent as in the EDL muscle of burn-WT rats
burn-induced EDL muscle total protein breakdown (Tyr) [2]: to the same extent as in the EDL muscle of burn-WT rats

CCOCn1cnc2c1c(=O)n(CCCCC(C)(C)O)c(=O)n2C [torbafylline]
EPAC/PI3K/Akt pathway [3]: activating
burn-induced skeletal muscle proteolysis [3]: significantly attenuated
skeletal muscle PDE4 activity [3]: normalizing
skeletal muscle cAMP concentrations [3]: normalizing
PDE4B expression (mouse myotubes, C2C12): normalized
proteolysis (protein breakdown) (mouse myotubes, C2C12): normalized

ciclamilast
PDE4D activity in lung tissue (PDE4D in lung tissue): normalized
PDE4D mRNA expression in lung tissue (PDE4D in lung tissue): normalized
